# According to publication PMC11494886, “Discovery and design of molecular glue enhancers of CDK12–DDB1 interactions for targeted degradation of cyclin K” (RSC Chemical Biology, 2024):
# Legend:
# [1] = system: MDA-MB-231DDB1-shRNA cells; assay: CellTiter-Glo viability assay, MDA-MB-231 DDB1-shRNA; assay type: cell-based, human; conditions: for EC50: Homo sapiens, MDA-MB-231 DDB1 shRNA, 72 hours, CellTiter-Glo, read-out: EC50 cell viability
# From the text: (§1) For stable genetic knock-down of DDB1 in cells, predesigned and validated TRC2-pLKO-puro shRNA plasmids for DDB1 (TRCN0000082855 and TRCN0000082856), and a non-targeting shRNA plasmid (SHC001) were obtained from Millipore Sigma. All plasmids were purified using the Qiagen Maxiprep kit (Qiagen). FuGENE HD 6 transfection reagent (Promega) was used for transfection of plasmids and lentiviral gene/shRNA constructs. Mission lentiviral packaging mix (Millipore Sigma) was used to package lentiviral plasmids into lentiviral particles in HEK293T cells, as per manufacturer's protocols. The resultant virus was concentrated using Vivaspin 20 centrifugal concentrators (Sartorius). MDA-MB-231 and HEK293T cells were transduced with lentivirus. Stable knocked down DDB1 (shDDB1-231 and shDDB1-HEK293T) cells were generated after selection with the antibiotic puromycin, and genetic knockdown was confirmed by western blotting.
# (§2) Cell viability was measured by Cell Titer Glo assay kit (Promega, USA). EC50 was determined from the nonlinear regression and a four-parameter algorithm on the GraphPad Prism software.
# [2] = target: T1, Cdk12/CycK and DDB1ΔB (Homo sapiens, UniProt Q16531+Q9NYV4, DEL396-705); assay: GST pulldown assay, recruitment of DDB1ΔB to Cdk12/CycK; assay type: binding; conditions: GST-Cdk12/GST-CycK bait, 5 μM compound, vs DMSO
# T1 construct: the Cdk12 (714–1063)/CycK (1–267) complex and the DDB1ΔB protein; made in house; host or cells: Sf9 insect cells (MultiBacTurbo)
# T1 sequence (Q9NYV4 714-1063, stated change not applied): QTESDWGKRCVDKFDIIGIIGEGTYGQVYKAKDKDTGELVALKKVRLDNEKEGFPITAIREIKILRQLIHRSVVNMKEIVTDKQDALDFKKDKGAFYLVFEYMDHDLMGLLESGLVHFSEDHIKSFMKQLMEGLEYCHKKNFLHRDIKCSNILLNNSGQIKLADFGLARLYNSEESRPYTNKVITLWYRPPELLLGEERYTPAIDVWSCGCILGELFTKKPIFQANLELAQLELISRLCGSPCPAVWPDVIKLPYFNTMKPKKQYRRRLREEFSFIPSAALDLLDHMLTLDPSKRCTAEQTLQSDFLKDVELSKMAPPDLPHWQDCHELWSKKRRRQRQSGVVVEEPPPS
# T1 sequence (O75909 1-267 partner limits assumed): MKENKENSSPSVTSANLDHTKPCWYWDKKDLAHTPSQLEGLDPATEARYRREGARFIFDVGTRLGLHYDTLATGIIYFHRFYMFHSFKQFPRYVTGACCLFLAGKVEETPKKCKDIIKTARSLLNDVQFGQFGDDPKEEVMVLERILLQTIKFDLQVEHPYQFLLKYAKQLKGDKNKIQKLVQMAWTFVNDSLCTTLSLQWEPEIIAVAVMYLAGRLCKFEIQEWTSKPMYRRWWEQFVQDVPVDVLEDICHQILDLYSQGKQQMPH
# T1 sequence (Q16531 with tags, fused parts or gaps DEL396-705): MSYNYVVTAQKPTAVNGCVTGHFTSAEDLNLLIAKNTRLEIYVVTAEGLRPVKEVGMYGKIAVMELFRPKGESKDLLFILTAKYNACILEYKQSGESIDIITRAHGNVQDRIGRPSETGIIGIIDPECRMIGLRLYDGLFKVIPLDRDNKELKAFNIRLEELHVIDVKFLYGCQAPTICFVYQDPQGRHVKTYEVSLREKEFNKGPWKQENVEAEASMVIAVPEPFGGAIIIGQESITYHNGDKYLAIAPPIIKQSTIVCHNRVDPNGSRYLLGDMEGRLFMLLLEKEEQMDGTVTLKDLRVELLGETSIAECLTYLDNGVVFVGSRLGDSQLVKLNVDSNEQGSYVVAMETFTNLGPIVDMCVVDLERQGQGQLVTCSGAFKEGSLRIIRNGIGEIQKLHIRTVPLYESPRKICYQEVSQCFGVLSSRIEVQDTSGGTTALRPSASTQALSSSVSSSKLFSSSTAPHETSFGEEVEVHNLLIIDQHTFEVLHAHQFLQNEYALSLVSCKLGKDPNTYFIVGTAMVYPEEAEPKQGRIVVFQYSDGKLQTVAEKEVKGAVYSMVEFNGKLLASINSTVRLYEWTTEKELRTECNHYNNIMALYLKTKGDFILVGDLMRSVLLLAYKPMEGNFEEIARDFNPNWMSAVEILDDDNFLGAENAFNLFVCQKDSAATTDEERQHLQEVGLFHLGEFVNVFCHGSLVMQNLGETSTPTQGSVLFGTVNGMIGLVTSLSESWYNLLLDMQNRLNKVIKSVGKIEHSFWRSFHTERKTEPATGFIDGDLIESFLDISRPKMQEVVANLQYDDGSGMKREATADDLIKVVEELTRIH
# Procedure: The pulldown assay was utilized to identify drug-triggered protein–protein interactions involving the Cdk12 (714–1063)/CycK (1–267) complex and the DDB1ΔB protein. In this assay, purified GST-tagged Cdk12 construct complexed with GST-CycK was combined with equimolar amounts of His6-tagged DDB1ΔB (5 μM) in the presence of 5 μM of the respective small molecular compound in pulldown assay buffer (50 mM Hepes pH 7.4, 200 mM NaCl, 0.25 mM TCEP, 0.05% (v/v) Tween20), ensuring a 2% total DMSO concentration. Experimental controls included samples supplemented with 2% DMSO instead of compound as well as samples devoid of the GST-tagged Cdk12/CycK complex. Each sample was individually added to approximately 50 μL of pre-equilibrated glutathione agarose beads (Thermo Fisher Scientific). The bead suspensions were then subjected to a 2 h incubation period at room temperature with gentle agitation. After incubation, the beads were pelleted by centrifugation at 700 × g for 4 min, the supernatant was discarded, and the beads were washed three-times with 100 μL of pulldown assay buffer. Following the washing step, bound proteins were eluted from the beads with 50 μL of pulldown assay buffer supplemented with 10 mM GSH for 1 h at room temperature under rotation. Subsequently, the beads were again pelleted by centrifugation at 700 × g for 4 min and the resulting supernatants containing eluted protein fractions were mixed with 6 × SDS sample buffer at a 1 : 1 (v/v) ratio. The eluted protein samples were separated by SDS-PAGE and subjected to Coomassie brilliant blue staining for visualization and analysis.
# [3] = system: HEK-293TDDB1-shRNA cells; assay: CellTiter-Glo viability assay, HEK-293T DDB1-shRNA; assay type: cell-based, human; conditions: 72 hours; for EC50: Homo sapiens, HEK-293T DDB1 shRNA, CellTiter-Glo, read-out: EC50 cell viability
# From the text: as §1, §2
# [4] = target: T2, Cdk12/CycK (Homo sapiens, UniProt Q9NYV4); assay: Thermal stability (nanoDSF) of Cdk12/CycK; assay type: binding; conditions: Cdk12/CycK 5 μM, 3-fold molar excess of compound
# T2 construct: GST (N, cleaved yes); made in house; host or cells: Sf9 insect cells (MultiBacTurbo), co-expressed with S. cerevisiae CAK1
# T2 sequence (Q9NYV4 714-1063): as the sequence (Q9NYV4 714-1063, stated change not applied) above
# T2 sequence (O75909 1-267 partner limits assumed): as the sequence (O75909 1-267 partner limits assumed) above
# From the text: Synthetic genes, codon optimized for expression in Sf9 insect cells, comprising the kinase domain of human Cdk12 (residues 714–1063, UniProt accession number Q9NYV4) and cyclin box domains of human cyclin K (residues 1–267, UniProt accession number O75909) were purchased from GeneArt. The coding sequence of Cdk12 was integrated into the pACEBac1 acceptor vector, while CycK was introduced into pIDK donor vector. Both target vectors underwent modification, wherein a GST-affinity tag followed by a tobacco etch virus (TEV) protease cleavage site was introduced upstream of the protein coding sequence. A pIDC donor vector was employed to insert full-length CDK-activating kinase CAK1 (UniProt accession number P43568) from S. cerevisiae devoid of any affinity tag. Cre recombination was performed to combine all three vectors in vitro, resulting in fused vectors suitable for co-expression in Sf9 insect cells. […]
# To investigate the thermal stability of proteins and protein complexes in solution, as well as to examine the impact of small molecular compounds on the proteins stability, the nano-differential scanning fluorimetry (nanoDSF) method was employed using a Prometheus NT.48 (NanoTemper) device. […] Thermal stability was monitored over a temperature range of 20–90 °C with a linear gradient of 1.5 °C min^−1, utilizing the PR.ThermControl software (NanoTemper). […]
# [5] = target: T1, Cdk12/CycK and DDB1ΔB; assay: Dynamic light scattering of SEC peak fractions; assay type: binding; conditions: SEC peak middle fractions, vs negative controls
# Procedure: To evaluate particle size distribution in liquid solution, dynamic light scattering was employed. Specifically, 10 μL fractions from the central region of peaks obtained in analytical size exclusion chromatography runs were analyzed. This analysis was performed using a DynaPro NanoStar 672 (Wyatt Technology) in a disposable DLS MicroCuvette (Wyatt Technology), while maintaining a constant temperature of 25 °C. Each measurement was conducted with an acquisition time of 3 s, and each data point depicted in the Results section represents the average of 20 individual DLS measurements. The hydrodynamic radius of the protein samples was determined using the processing and analysis software DYNAMICS.
EC50 [1] [nM],"fold change of EC50 (DDB1 shRNA vs WT) ([1]; MDA-MB-231 DDB1 shRNA vs WT MDA-MB-231, 72 hours)",ΔTm (elevation of melting temperature) [4],hydrodynamic radius (DLS) [5],Compound,recruitment of DDB1ΔB in pulldown [2],fold change of EC50 (DDB1 shRNA vs WT) ([3]; HEK-293T DDB1 shRNA vs WT HEK-293T),EC50 [3] [nM]
65,0.9,+4.15 °C,,"CN(C)C/C=C/C(=O)Nc1ccc(C(=O)N2CCC[C@@H](Nc3ncc(Cl)c(-c4c[nH]c5ccccc45)n3)C2)cc1 [THZ531, reference compound]",incapable of recruiting the DDB1ΔB protein,ns,231
218,,+4.1 °C,significantly increased,Cn1cc(-n2cnc3c(NCc4nc5cc(Cl)c(Cl)cc5[nH]4)nc(N4CCOCC4)nc32)cn1 [SR-4835],enrichment of DDB1ΔB fractions,,2000
